{"source": "patent US20070207223A1", "about": "“Means for improving cardiovascular health” (priority 2006, published 2007)", "key": {"[1]": {"conditions": "regular dietary intake; cited from earlier work"}, "[2]": {"assay": "RBC omega-3 fatty acid content, dietary study in beagle dogs", "assay_type": "in vivo", "procedure": "(§1) The test article, SDA, was administered in the diet once daily, 7 days per week, for up to 90 days to three groups (Groups 1-3) of male beagle dogs. The reference article, eicosapentaenoic acid (EPA), was administered to Group 4 on the same dosing regimen. Both SDA and EPA were supplied as ethyl esters. The control article, food grade high oleic sunflower oil (SFO), was administered to Group 5 on the same dosing regimen. SFO was also added to food of groups 1 through 4 so that all animals received a similar volume of oil per kg body wt. A dietary supplement, vitamin E, was added to all diets. Dosage levels were 21.4, 64.2 and 192.9 mg/kg/day SDA, 42.9 mg/kg/day EPA and were calculated for each animal based on body weight for Groups 1, 2, 3 and 4, respectively. Each group consisted of 15 males. Five animals/group were scheduled for each interim necropsy (study weeks 4 and 8) and the primary necropsy at the end of the 12-week treatment period. In addition, five animals were euthanized prior to randomization and test article administration to establish baseline levels of fatty acids (pretest necropsy).\n(§2) The animals were observed twice daily for mortality and moribundity. Clinical examinations were performed daily, and detailed physical examinations were performed weekly. Individual body weights were recorded weekly. Food consumption was recorded daily and reported weekly. Blood samples for analysis of fatty acids were collected from five dogs scheduled for the pretest necropsy and from all surviving dogs during study weeks 2, 4, 8 and 12. All animals were euthanized, and in addition to liver and kidney sections, two samples of heart tissue were collected, one set was analyzed for fatty acid analysis and the other sample was retained for microscopic analysis at the scheduled necropsies. Sections from the heart, liver and kidney were examined microscopically from five animals during pretest and from 5 animals/group (Groups 3-5 only) at the study week 12 necropsy.\nBlood samples were collected from the 5 dogs selected for the pretest necropsy and from all surviving dogs at study weeks 2, 4, 8 and 12. The samples were collected from the dog's jugular vein into tubes containing EDTA prior to the feeding/dosing regimen. The red blood cells (RBC) were separated from the plasma by centrifugation at 1500× for approximately 20 minutes at 4° C. The plasma was transferred to polypropylene tubes and stored at approximately −70° C. for future analysis. The buffy coat was removed from the packed RBCs, and the RBCs were divided approximately equally into two tubes.\n(§3) Tissue preparation, lipid extraction and analysis were conducted according to a conventional protocol. Briefly, heart tissues were first lyophilized overnight, and then pulverized by grinding between two ground glass slides. The ground tissue was suspended in saline and subjected to 10-15 seconds of sonication. Lipids were extracted with methanol and methylene chloride, and the solvent evaporated under nitrogen. Thawed RBCs were extracted with isopropanol and hexane. After centrifugation of the stroma, the solvent was transferred and evaporated under nitrogen. Phospholipids extracted from heart and RBC samples were methylated with BF3, at 100° C. for 10 minutes. These conditions transmethylate glycerophospholipid FAs but not sphingolipid FAs. After heating, all samples were extracted with hexane and water. The hexane layer was removed, dried under nitrogen, and the FA methyl esters reconstituted in hexane for analysis by flame ionization gas chromatography. FAs were identified by comparison with known standards, and FA compositions were reported as weight percent of total FA."}, "[3]": {"assay": "Heart tissue omega-3 fatty acid content, dietary study in beagle dogs", "assay_type": "in vivo", "procedure": "as §1, §2, §3\nAnimals were euthanized by an intravenous injection of sodium pentobarbital followed by exsanguinations. Two samples of approximately 200 mg of heart tissue from the left ventricle were collected, rinsed in chilled saline, wrapped in aluminum foil, flash frozen in liquid nitrogen, and stored at approximately −70° C. The samples were analyzed for pathologic abnormalities."}, "[4]": {"conditions": "dog, in vivo", "procedure": "as §1, with “Five animals/group were scheduled for each interim necropsy (study weeks 4 and 8) and the primary necropsy at the end of the 12-week treatment period. In addition, five animals were euthanized prior to randomization and test article administration to establish baseline levels of fatty acids (pretest necropsy).” left out\nThe animals were observed twice daily for mortality and moribundity. […] Individual body weights were recorded weekly. Food consumption was recorded daily and reported weekly. […] All animals were euthanized, and in addition to liver and kidney sections, two samples of heart tissue were collected, one set was analyzed for fatty acid analysis and the other sample was retained for microscopic analysis at the scheduled necropsies. […]\nAnimals were euthanized by an intravenous injection of sodium pentobarbital followed by exsanguinations. […] The samples were analyzed for pathologic abnormalities. […]"}, "[5]": {"conditions": "dietary supplementation, human diet; phospholipid fractions; cited from earlier work"}}, "note": "Entries after “also recorded” stand apart in the source; their conditions may differ."}
{"smiles": "CC/C=C\\C/C=C\\C/C=C\\CCCCCCCC(=O)O", "note": "[ALA, α-linolenic acid]", "values": [{"measurement": "Tissue concentrations of EPA and DHA", "setting": "[1]", "value": "proven ineffective in raising the tissue concentrations of EPA and DHA"}]}
{"smiles": "CC/C=C\\C/C=C\\C/C=C\\C/C=C\\C/C=C\\CCCC(=O)O", "note": "[EPA, eicosapentaenoic acid, reference compound]", "values": [{"measurement": "RBC omega-3 fatty acid content relative to SFO-treated dogs (negative control)", "setting": "[2]; 42.9 mg/kg/day EPA in diet, between study weeks 2 and 12", "value": "3-10 fold"}, {"measurement": "Heart tissue omega-3 fatty acid content relative to sunflower oil-treated dogs (negative control)", "setting": "[3]; 42.9 mg/kg/day EPA in diet, between study weeks 4 and 12", "value": "3-5 fold"}]}
{"smiles": "CC/C=C\\C/C=C\\C/C=C\\C/C=C\\CCCCC(=O)O", "note": "[SDA, Stearidonic acid]", "values": [{"measurement": "Total omega-3 fatty acid content (RBC) over pretreatment levels", "setting": "[2]; 21.4 mg/kg/day SDA, as early as study week 2", "value": "overall increase"}, {"measurement": "Time of peak of total omega-3 fatty acid content (RBC)", "setting": "[2]; 21.4 mg/kg/day SDA, decreasing thereafter", "value": "approximately 4 weeks"}, {"measurement": "Total omega-3 fatty acid content (RBC) over pretreatment", "setting": "[2]; 192.9 mg/kg/day SDA (Group 3), elevated from study week 2 through 12 weeks", "value": "approximately 2 fold"}, {"measurement": "Overall increase in omega-3 fatty acid content (RBC) over time compared with the EPA group", "setting": "[2]; 192.9 mg/kg/day SDA vs 42.9 mg/kg/day EPA, slightly lower", "value": "comparable to the increase seen in the 42.9 mg/kg/day EPA group"}, {"measurement": "Omega-3 fatty acid content in red blood cells (RBC)", "setting": "[2]; SDA 21.4, 64.2 and 192.9 mg/kg/day in diet, study weeks 2, 4, 8 and 12", "value": "increased in a dose-dependent manner"}, {"measurement": "Microscopic changes to heart, liver and kidney tissues", "setting": "[4]", "value": "did not cause any significant microscopic changes"}, {"measurement": "Microscopic findings (heart, liver, kidney)", "setting": "[4]", "value": "no microscopic findings attributed to test article administration"}, {"measurement": "Concentrations of EPA and DPA in erythrocytes and plasma", "setting": "[5]", "value": "increase the concentrations of EPA and DPA; also recorded: effectively converted into EPA and DPA"}, {"measurement": "Heart omega-3 fatty acid content over pretreatment levels", "setting": "[3]; 21.4 mg/kg/day SDA, study week 4", "value": "negligible increase"}, {"measurement": "Heart omega-3 fatty acid content, peak over pretreatment levels", "setting": "[3]; 21.4 mg/kg/day SDA, study week 8", "value": "approximately 1.5 fold"}, {"measurement": "Heart omega-3 fatty acid content over pretreatment levels", "setting": "[3]; 192.9 mg/kg/day SDA, study week 12", "value": "approximately 3 fold"}, {"measurement": "Omega-3 fatty acid content in the heart tissue", "setting": "[3]; SDA 21.4, 64.2 and 192.9 mg/kg/day in diet, study weeks 4, 8 and 12", "value": "increased in a dose-dependent manner"}, {"measurement": "Conversion into EPA and DPA and incorporation into cardiac and red blood cell membranes", "setting": "[3]; SDA via the diet daily for 12 consecutive weeks, male beagle dogs", "value": "effectively converted into EPA and DPA"}]}
